Assay results as given in PubChem BioAssay (NCI).
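How tested: cells in 96-well plates exposed to compound for 48 hours at five concentrations. Definition used: TGI = concentration required for complete inhibition of growth.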

Experiments:
Assay in all cases: inhibition of tumour cell growth, NCI panel, 48 h
786-0 renal = system: 786-0 renal
HOP-92 NSCLC = system: HOP-92 NSCLC
K-562 leukemia = system: K-562 leukemia
M14 melanoma = system: M14 melanoma
RPMI-8226 leukemia = system: RPMI-8226 leukemia
SF-268 CNS = system: SF-268 CNS
SK-MEL-28 melanoma = system: SK-MEL-28 melanoma
SK-MEL-5 melanoma = system: SK-MEL-5 melanoma
SN12C renal = system: SN12C renal
T-47D breast = system: T-47D breast

| Structure (SMILES) | TGI (786-0 renal) [µM] | TGI (HOP-92 NSCLC) [µM] | TGI (K-562 leukemia) [µM] | TGI (M14 melanoma) [µM] | TGI (RPMI-8226 leukemia) [µM] | TGI (SF-268 CNS) [µM] | TGI (SK-MEL-28 melanoma) [µM] | TGI (SK-MEL-5 melanoma) [µM] | TGI (SN12C renal) [µM] | TGI (T-47D breast) [µM] |
| --- | --- | --- | --- | --- | --- | --- | --- | --- | --- | --- |
| COc1ccc2c3c1OC1C(=O)C=CC4(O)C(C2)NCC[C@@]314 (stereo not given in full) | 5.02 | 20.5 | > 80.8 | 6.61 | 13.2 | 7.55 | 22.7 | 16.4 | 4.42 | 5.69 |
| CC(C)(C)c1ccc(CN2CCN(C(c3ccccc3)c3ccc(Cl)cc3)CC2)cc1 (stereo not given) | > 100 | > 100 | > 100 | > 100 | > 100 | > 100 | > 100 | 73.1 | > 100 | 54.9 |
| CCCN1C(=O)CCC2=C1CCc1c2ccc(Cl)c1Cl | > 100 | 56.6 | > 100 | > 100 | > 100 | > 100 | > 100 | 60.4 | > 100 | > 100 |
| CC(=O)OCC1OC(n2c(N)c(C#N)c(-c3ccccc3)c(C#N)c2=S)C(OC(C)=O)C(OC(C)=O)C1OC(C)=O (stereo not given) | > 86.4 | 50.9 | > 100 | > 100 | > 100 | > 77.5 | > 100 | > 100 | > 100 | > 100 |
| CC1CCCC2=C1C(c1ccc(Cl)cc1)n1c(s/c(=C\c3ccc(Cl)cc3)c1=O)=N2 (stereo not given) | > 100 | > 100 | > 100 | > 100 | > 100 | > 100 | > 100 | > 100 | > 100 | > 100 |
| Cc1cc(N(CCC#N)CCC#N)ccc1/C(N=Nc1cccc([N+](=O)[O-])c1)=N/NC(=O)c1cc(Cl)ccc1O | > 100 | 76.3 | > 100 | > 100 | 47.5 | > 100 | > 100 | 39.3 | > 100 | 71 |
| c1ccc(C2SCC3=Nc4ccccc4CN32)cc1 (stereo not given) | > 100 | > 100 | > 100 | > 100 | > 100 | > 100 | > 100 | 32.2 | > 100 | > 100 |
| O=C(Oc1ccccc1)c1cc2cc(CCl)ccc2oc1=O | 64.4 | 28.7 | > 100 | 67.1 | > 100 | 73.9 | > 100 | 27.5 | 67.4 | 38.7 |
| O=C(O)CSCC(=O)Nc1ccc2cccc3c2c1CC3 | > 100 | > 100 | > 100 | > 100 | > 100 | > 100 | > 100 | > 100 | > 100 | > 100 |
| O=C1CCCc2c1c1c(n2Cc2ccccc2)-c2ccccc2C1=O | 66.5 | 99.7 | 46.6 | 46.4 | 24.3 | 64.1 | 55.1 | 40.7 | 45.5 | 33.3 |
| Nc1nc(Cl)cc(NCC2(CO)CCC(Cc3ccccc3)C2)n1 (stereo not given) | > 100 | > 93.8 | 64.8 | 46.6 | 62.7 | > 100 | > 100 | 15.6 | > 100 | > 70.3 |
| C/C(=N\Nc1ccc([N+](=O)[O-])cc1[N+](=O)[O-])c1ccc2ccccc2n1 | > 100 | > 100 | > 100 | > 100 | > 100 | > 100 | > 100 | > 100 | > 100 | > 100 |
| COc1ccc(C2SCC(=O)N2c2ccc(-c3ccc(-n4c(-c5ccccc5)nc5ccccc5c4=O)cc3)cc2)cc1 (stereo not given) | > 100 | > 100 | > 100 | > 100 | > 100 | > 100 | > 100 | > 100 | > 100 | > 100 |
| CN(C)CCNc1ccc([N+](=O)[O-])c2nc3ccccc3c(N)c12 | > 10 | 7.71 | 5.35 | 1.94 | 1.51 | 3.94 | > 10 | 2.79 | > 10 | 3.7 |
